Laboratory results: patent publication US11813350B2, “Composition for the treatment of rosacea and/or telangiectasia” (NAOS INSTITUTE OF LIFE SCIENCE, priority 2020, dated 2023)

System: KLK-5
Assay: Inhibition of the synthesis of KLK-5 secreted by normal human keratinocytes in an environment mimicking rosacea (IL-17 + Vit. D induction, ELISA on supernatants, normalized to MTT cell viability)
Assay type: cell-based
Details: Keratinocyte, NHK, 48 hours, induced with IL-17 10 ng/ml + Vit. D 10-7 mol/L, 1 mM calcium, positive control
Protocol: NHKs originating from LONZA (France) were used in this study.
The culture conditions are as follows: • Cell type: NHK donor PP12 • Culture medium: KBM+Lonza supplements=KGM • Seeding density: 15,000 cells/well in 96-well plates with 100 μl of medium.
The conditions for induction of the synthesis of KLK-5 are as follows: • Presence of 1 mM of calcium • Inducer mix: (see Table 1) IL-17 at 10 ng/ml+Vit. D at 10-7 mol/L • Processing time: 48 hours • Positive control of induced KLK5 inhibition: Dexamethasone at 1 μM
The quantification of KLK-5 in the supernatants is carried out using an Enzyme Linked Immunosorbent Assay (ELISA) (Ref: DY8459-05, R&D Systems, France) with the reagents recommended by the manufacturer (DuoSet Ancillary Reagent Kit 2, Ref: DY008, R&D Systems, France) and used according to the manufacturer's instructions.
The optical density (OD) is read with a spectrophotometer at 450 nm. The concentration of KLK-5 is calculated from the standard range (15.6 to 1000 pg/ml) established with the recombinant human protein of KLK-5.
A dilution of the supernatants to 1/50th is mandatory so that the samples are not out of range. […]
MTT is a soluble yellow dye which is metabolized by mitochondrial enzymes (succinate dehydrogenase) into a dark blue compound: formazan. The formazan crystals are then dissolved in DMSO then the optical density is measured spectrophotometrically at 540 nm. […]

C[C@@H]1C[C@H]2[C@@H]3CCC4=CC(=O)C=C[C@]4(C)[C@@]3(F)[C@@H](O)C[C@]2(C)[C@@]1(O)C(=O)CO [dexamethasone]
inhibition at 1 µM: 16.6%
